Test results from the supplement of paper PMC10307832.

How the values were obtained:
Assay in all cases: relative viability (nuclei count vs DMSO), 5 days (fraction); higher = more cells survive
MK-8033 + Pemetrexed = compound: Cn1cc(-c2cnc3ccc4ccc(CS(=O)(=O)NCc5ccccn5)cc4c(=O)c3c2)cn1 [MK-8033] + Nc1nc2[nH]cc(CCc3ccc(C(=O)N[C@@H](CCC(=O)O)C(=O)O)cc3)c2c(=O)[nH]1 [Pemetrexed] (partner 0.2 µM)
Outline: (§1)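 Lung cancer cell lines in 1536-well plates got either a single drug or a fixed anchor-drug dose together with five library-drug doses (not always all listed) in √10 steps, by pin tool, on the day after seeding. Nuclei were counted after 5 days, and relative viability is the treated-to-vehicle ratio of nuclei counts. Values are medians of duplicate plates.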

RU-SKI 43 + Navitoclax = compound: CC[C@@H](C)CNCC(=O)N1CCC2=C([C@@H]1COC3=CC=CC(=C3)C)C=CS2 [RU-SKI 43] + CC1(C)CCC(c2ccc(Cl)cc2)=C(CN2CCN(c3ccc(C(=O)NS(=O)(=O)c4ccc(N[C@H](CCN5CCOCC5)CSc5ccccc5)c(S(=O)(=O)C(F)(F)F)c4)cc3)CC2)C1 [Navitoclax] (partner 0.5 µM)
Outline: as §1

Irinotecan + Navitoclax = compound: CCc1c2c(nc3ccc(OC(=O)N4CCC(N5CCCCC5)CC4)cc13)-c1cc3c(c(=O)n1C2)COC(=O)[C@]3(O)CC [Irinotecan] + CC1(C)CCC(c2ccc(Cl)cc2)=C(CN2CCN(c3ccc(C(=O)NS(=O)(=O)c4ccc(N[C@H](CCN5CCOCC5)CSc5ccccc5)c(S(=O)(=O)C(F)(F)F)c4)cc3)CC2)C1 [Navitoclax] (partner 0.5 µM)
Outline: as §1

Irinotecan + Palbociclib = compound: CCc1c2c(nc3ccc(OC(=O)N4CCC(N5CCCCC5)CC4)cc13)-c1cc3c(c(=O)n1C2)COC(=O)[C@]3(O)CC [Irinotecan] + CC(=O)c1c(C)c2cnc(Nc3ccc(N4CCNCC4)cn3)nc2n(C2CCCC2)c1=O [Palbociclib] (partner 0.5 µM)
Outline: as §1

Row | Cell Line | relative viability (MK-8033 + Pemetrexed; first compound 0.02 µM) | relative viability (MK-8033 + Pemetrexed; first compound 0.06325 µM) | relative viability (MK-8033 + Pemetrexed; first compound 0.2 µM) | relative viability (MK-8033 + Pemetrexed; first compound 0.6325 µM) | relative viability (MK-8033 + Pemetrexed; first compound 2 µM) | relative viability (RU-SKI 43 + Navitoclax; first compound 0.1 µM) | relative viability (RU-SKI 43 + Navitoclax; first compound 0.3162 µM) | relative viability (RU-SKI 43 + Navitoclax; first compound 1 µM) | relative viability (RU-SKI 43 + Navitoclax; first compound 3.162 µM) | relative viability (RU-SKI 43 + Navitoclax; first compound 10 µM) | relative viability (Irinotecan + Navitoclax; first compound 0.6325 µM) | relative viability (Irinotecan + Navitoclax; first compound 2 µM) | relative viability (Irinotecan + Navitoclax; first compound 6.325 µM) | relative viability (Irinotecan + Navitoclax; first compound 20 µM) | relative viability (Irinotecan + Palbociclib; first compound 0.6325 µM) | relative viability (Irinotecan + Palbociclib; first compound 2 µM) | relative viability (Irinotecan + Palbociclib; first compound 6.325 µM) | relative viability (Irinotecan + Palbociclib; first compound 20 µM)
1 | NCI-H520 | 0.625 | 0.697 | 0.607 | 0.652 | 0.602 | 1.08 | 1.42 | 1.28 | 1.08 | 1.03 | 0.851 | 0.634 | 0.288 | 0.227 | 0.224 | 0.242 | 0.214 | 0.146
2 | IA-LM |  |  |  |  |  | 0.752 | 0.751 | 0.856 | 0.738 | 0.824 | 0.574 | 0.246 | 0.15 | 0.0454 |  |  |  | 
3 | LC-2-ad | 0.298 | 0.273 | 0.264 | 0.268 | 0.276 | 0.388 | 0.487 | 0.63 | 0.422 | 0.329 | 0.287 | 0.282 | 0.169 | 0.167 | 0.407 | 0.371 | 0.316 | 0.251
4 | EKVX | 0.373 | 0.344 | 0.337 | 0.34 | 0.424 | 0.989 | 0.893 | 0.96 | 0.982 | 0.67 | 0.924 | 0.74 | 0.344 | 0.157 |  | 0.311 | 0.265 | 0.227
5 | NCI-H2228 | 0.274 | 0.343 | 0.365 | 0.308 | 0.325 | 0.91 | 1.3 | 0.995 | 1.25 | 0.987 | 0.875 | 0.529 | 0.405 | 0.51 | 0.453 | 0.664 | 0.393 | 0.456
